Measured values taken from patent US9388216B2, “Methods of treating reproductive cancer” (Medical Research Council, priority 2006, dated 2016).

Columns and labels:
[1] = tested on: PARP cleavage in HEK293/rGnRHR cells; test: Time-course of PARP cleavage (apoptosis), western blot; type: cell-based, rat; settings: 100 nM
Procedure: (§1) We investigated whether the growth suppression caused by GnRH on HEK293 cells expressing the rat receptor was due to an inhibition of cell proliferation or an induction of apoptosis. On the one hand, we used radioactive thymidine incorporation into the genome to track cell proliferation over a period of 96 h. […] On the other hand, we measured apoptosis by monitoring cleavage of poly[ADP-ribose]polymerase (PARP), a substrate of caspase 3. […] The increase of cleaved PARP in the cytoplasm was proportional to the increase of cleaved PARP in the nucleus (data not shown), so we routinely only examined clarified whole-cell lysates for technical ease.

[2] = tested on: HEK293 cells expressing human GnRHR with catfish GnRHR tail or rat GnRHR with TRHR tail; test: Cell growth after five days of GnRH I in HEK293 cells expressing tailed chimeric receptors; type: cell-based; settings: five days of continuous treatment
Procedure: Trypan Blue-excluding cells were then counted with a haemocytometer. For the second method, cells were seeded into 96-well plates at 5,000 cells (in 100 μl)/well and treated exactly as described before. 10 μl WST-1 reagent (Roche Diagnostics Ltd.; Lewes, East Sussex, UK) was added directly to each well and, after 3 h at 37° C., absorbance was read at 450 nm (with a reference at 690 nm) against a background control as blank using a microplate ELISA reader. To the best of our knowledge, the ability to inhibit the growth of cells expressing its cognate receptor is a property only clearly described for GnRH, Since the type I GnRH receptor (GnRHR) is the only G protein-coupled receptor lacking an intracellular C-terminal tail, we hypothesized that the cell growth suppression ability of GnRH was conferred by this unique feature of the GnRHR. […] We were unable to detect growth suppression of wild-type HEK293 cells, which endogenously express adrenergic, LPA and endothelin receptors, treated with their corresponding agonists (data not shown). The expression of all receptors mentioned was confirmed by binding assays or western blotting (data not shown).

rat GnRH receptor = target: T1, rat GnRH receptor (Rattus norvegicus, UniProt P30969); test: Accumulation of total inositol phosphates (PLCβ activation) in HEK293/rGnRHR cells; type: cell-based
T1 construct: expressed in transfected cells
T1 sequence (P30969 1-327): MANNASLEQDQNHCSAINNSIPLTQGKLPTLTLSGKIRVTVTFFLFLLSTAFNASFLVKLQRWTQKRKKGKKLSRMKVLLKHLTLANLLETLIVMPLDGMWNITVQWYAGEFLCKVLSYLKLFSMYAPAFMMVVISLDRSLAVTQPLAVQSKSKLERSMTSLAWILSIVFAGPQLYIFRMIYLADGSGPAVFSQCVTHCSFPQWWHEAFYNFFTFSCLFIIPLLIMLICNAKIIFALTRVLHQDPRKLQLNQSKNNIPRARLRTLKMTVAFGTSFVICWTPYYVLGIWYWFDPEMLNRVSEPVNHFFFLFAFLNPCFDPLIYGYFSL
Procedure: HEK293 cells stably expressing the GnRH receptor growing on 12-well PLL-coated plates were pre-labelled with 1 μCi/ml myo-[H3]inositol (Amersham) in inositol-free DMEM (Sigma) for 48 h. On the day of the experiment, cells were washed with assay buffer (140 mM NaCl, 20 mM HEPES, 8 mM glucose, 4 mM KCl, 1 mM MgCl2, 1 mM CaCl2, 1 mg/ml BSA), pre-incubated with 10 mM LiCl (in assay buffer) for 30 min, and stimulated with different concentrations of the peptides (in the same buffer) for 1 h at 37° C. Incubations were terminated by removing the culture medium and lysing the cells in ice cold 10 mM formic acid for 30 min. Inositol phosphates were extracted by chromatography with an anion exchange resin (AG® 1-X8, Bio-Rad) using 1 M ammonium formate and 0.1 M formic acid. Liquid scintillant was added to the final eluate and [3H]inositol phosphates were measured in the β-counter.
Bar graphs and curves were obtained using Prism 3.0 (GraphPad Software, Inc.: San Diego, Calif., USA). IC50 and EC50 values were determined by non-linear regression analysis. Curves were best-fitted to a one-site model. […] Values were normalised as specified in the figure legends.

[3] = tested on: HEK293 cells over-expressing the catfish GnRHR or the TRHR; test: Cell growth in HEK293 cells over-expressing the catfish GnRHR or the TRHR; type: cell-based; settings: data not shown
Procedure: For the first method, HEK293 cells expressing various GnRH receptor constructs were seeded into 12-well PLL-coated plates at 50,000 cells (in 1 ml)/well and cultured with continuous GnRH exposure for five days, adding fresh peptide every day. Trypan Blue-excluding cells were then counted with a haemocytometer. For the second method, cells were seeded into 96-well plates at 5,000 cells (in 100 μl)/well and treated exactly as described before. 10 μl WST-1 reagent (Roche Diagnostics Ltd.; Lewes, East Sussex, UK) was added directly to each well and, after 3 h at 37° C., absorbance was read at 450 nm (with a reference at 690 nm) against a background control as blank using a microplate ELISA reader.
To the best of our knowledge, the ability to inhibit the growth of cells expressing its cognate receptor is a property only clearly described for GnRH, Since the type I GnRH receptor (GnRHR) is the only G protein-coupled receptor lacking an intracellular C-terminal tail, we hypothesized that the cell growth suppression ability of GnRH was conferred by this unique feature of the GnRHR. […] We were unable to detect growth suppression of wild-type HEK293 cells, which endogenously express adrenergic, LPA and endothelin receptors, treated with their corresponding agonists (data not shown). The expression of all receptors mentioned was confirmed by binding assays or western blotting (data not shown).

[4] = tested on: ERK1/2 phosphorylation in HEK293 cells expressing rat GnRHR or rat GnRHR/TRHR chimera; test: ERK activation profile, western blot with anti-phosphorylated ERK1/2; type: cell-based; settings: 100 nM, rat GnRHR versus rat GnRHR/TRHR chimera
Excerpt: We decided to investigate if this lack of rapid desensitisation holds true for other responses that may be more pertinent for the antiproliferative/apoptotic properties of GnRH.

[5] = tested on: Gi coupling of GnRHR (FSK-stimulated cAMP); test: Inhibition of FSK-stimulated cAMP in HEK293/rGnRHR cells; type: cell-based, rat; settings: unpublished results
Excerpt: However, we agree with the general view that PLC, representing the classical Gq-initiated pituitary signalling pathway, is not a relevant component of the apoptotic cascade.

HEK293/rGnRHR cells = test: Thymidine incorporation assay; type: cell-based, rat; settings: 100 nM, continuous treatment, over 96 h
Procedure: Medium of cells growing on 24-well PLL-coated plates was removed and 0.5 μCi [3H]thymidine (Amersham) in complete fresh medium was added to each well. After an overnight incubation, the medium was removed, the cells washed three times with 1 ml PBS and left for […] at room temperature in 0.5 ml 0.1 N NaOH. The extract was then transferred to a scintillation vial, 2 ml of Optiphase “HiSafe 3” cocktail (PerkinElmer) added and 3H counts measured in a liquid scintillation 1450 Wallac MicroBeta® TriLux counter.
as §1

For “pGlu-His-Trp-Ser-Tyr-Gly-Leu-Arg-Pro-Gly.NH2 [GnRH I]”, the “time after first treatment at which PARP cleavage (apoptosis) is manifest” value [1] was “at least 48 h”, the “effect of GnRH I on cell growth of cell lines expressing the chimeras” value [2] was “Addition of the C-terminal tails inhibited the effect” and the “fold more potent to activate PLCβ than GnRH II” value (rat GnRH receptor) was 4.7 fold. The “inhibition of cell growth” value [3] was “did not inhibit the growth”, the “duration of ERK activation” value [4] was “more sustained in the cells expressing the receptors lacking the C-terminal tail” and the “inhibition of FSK-stimulated cAMP” value [5] was “did not detect”. For the same substance, the “DNA replication (thymidine incorporation) compared to untreated cells” value (HEK293/rGnRHR cells) was “reduced DNA replication”.
